In general, melting point refers to the temperature of the solid-liquid transition. As for `O=C(O)C=Cc1ccc(CCNC(=O)c2ccc(Cl)cc2)cc1`, the melting point fell in the range of 253 to 255 °C.

Consider `COc1cc(C=O)ccc1Oc1nc(Nc2cccc(C(=O)O)c2)nc(Oc2ccccc2)n1`, for which the melting point fell in the range of 218 to 220 °C.

Compound `COC(=O)c1c2c(c3c(C)c(OC)c(OC)c(OC)c3c1-c1ccc(OC)c(OC)c1)OCOC2=O` had a melting point of 84 to 85 °C.

`C#Cc1ccc(C23OCC(C4CCCCC4)(CO2)CO3)cc1` yielded a melting point of 190 to 192 °C.

As to `O=c1[nH]c(S)nnc1-c1cc(O)c(O)c([N+](=O)[O-])c1`, the melting point lay within 282 to 284 °C.

Take `COc1ccc(C(=O)NCCCCCCCCCNC(=O)c2ccc(OC)cc2)cc1`: the melting point lay within 156 to 157 °C.

Take `Cc1c2c(c(C)c3c1NC(C)(C)C3)OC(C)(CN1CCC(N(C)c3nc4ccccc4s3)CC1)C2` (centres undefined): the melting point is 147 to 150 °C.

As to `Cc1noc(-c2ccc(I)cc2)n1`, the melting point lay within 136 to 137 °C.

Compound `O=C(O)CCCCCCCc1nn(-c2ccccc2)c2c1CCC2` gave a melting point of 55 to 57 °C.

`CC1COCC(C)N1c1cccc([N+](=O)[O-])c1` (centres undefined) gave a melting point of 127 to 128 °C.

Take `NN=CNCC(=O)NC1CCCCC1`: the melting point was in the range of 232 to 234 °C.

Compound `Cc1cc2ccccc2n1-c1ccnc2ccccc12` came in with a melting point of 78 to 80 °C.

As to `CNC(=O)c1cc2c(nc(C)n2C)c2c1CCC1(Cc3ccccc3C1)N2`, the melting point was in the range of 237 to 238 °C.

Compound `CCNC(=O)c1c([Si](C)(C)C)ccc(C(F)F)c1Cl` came in with a melting point of 120 to 121 °C.

On to `NCc1cccc(C2CCN(c3cc4c(cc3F)c(=O)c(C(=O)O)cn4C3CC3)C2)c1` (centres undefined), for which the melting point is 250 to 253 °C.

Turning to `CC(C)(C)c1cc(CCN=C(O)c2cc(C(O)=NCCc3cc(C(C)(C)C)c(O)c(C(C)(C)C)c3)c(C(=O)O)cc2C(=O)O)cc(C(C)(C)C)c1O`, the melting point was 231 to 233 °C.

Compound `Cc1ccc(C2=C(C#N)C(c3cccc4nonc34)c3c[nH]nc3N2)s1` (centres undefined) registered a melting point of 192 °C.

As to `CC(C)OC(=O)C1(c2onc(-c3ccc(O)cc3)c2-c2ccccc2)CC1`, the melting point amounted to 175 °C.

`C=CCOc1cc(C(=O)O)cc(C(=O)N(C)C)c1`: the melting point is 93 to 95 °C.

The compound `Clc1ccc(OC2CN(C(c3ccccc3)c3ccccc3)C2)cc1` returned a melting point of 113 to 114 °C.

Regarding `CCC(C)(C)C(=O)Oc1cccc2ccc(OCCOc3ccc(C(=O)C(=O)OC)cc3)cc12`, the melting point lay in the range of 119 to 120 °C.

In turn, `CCOC(=O)CCc1ccc2c(c1)CC(CNS(=O)(=O)c1ccc(Cl)cc1)C2` (centres undefined) had a melting point of 90 to 93 °C.

`CSC(SC)C1(O)O[C@H](COCc2ccccc2)[C@@H](OCc2ccccc2)[C@H](OCc2ccccc2)[C@H]1OCc1ccccc1` (some centres undefined) displayed a melting point of 96 to 97 °C.

`O=C(O)COc1c(-c2cccc(Cl)c2)cc(C(=O)NCCCCCCCCn2ccc3cc(F)ccc32)cc1-c1cccc(Cl)c1` had a melting point of 141 to 144 °C.

`CCc1nc2c(N)nc3cc(OCc4ccc(C(=O)OC)o4)ccc3c2s1` registered a melting point of 184 to 186 °C.

In turn, `CCCC1CC(=O)c2c(NC(=O)C(=O)OCC)ccc(C)c21` (centres undefined) registered a melting point of 84 to 86 °C.

Turning to `COc1ccc2nc3c([N+](=O)[O-])ccc(Cl)c3c(Cl)c2c1`, the melting point fell in the range of 243 to 246 °C.

As for `CC(=O)NC1Cc2ccc([N+](=O)[O-])cc2C1` (centres undefined), the melting point lay within 143 to 144 °C.

As for `COC1C(O)C(CO)OC1n1cnc2c(N)nc(F)nc21` (centres undefined), the melting point fell in the range of 239 to 241 °C.

The compound `CCCn1cc(-c2ccccc2)c(=O)c(-c2ccccc2)n1` came in with a melting point of 94 to 96 °C.

Compound `O=C(N1CCN(Cc2ccccc2)CC1)N1CC(Oc2ccc(Br)cc2)C1` yielded a melting point of 133 to 135 °C.

In turn, `CC(=O)C1=CCC2C3CCC4=CC(=O)C=CC4(C)C3(F)C(O)CC12C` (centres undefined) yielded a melting point of 327 to 328 °C.

On to `Brc1cccc(Oc2ncccc2OCCCc2ccncc2)c1`, for which the melting point was 111 to 113 °C.

Compound `Cn1cc(C(F)(F)F)c(C(=O)O)c1F` yielded a melting point of 190 to 191 °C.

The record behind these values is a melting point compilation (Tetko et al.; mined from patent text by program, amines drawn as free bases though some values may be those of a salt).
